According to ChEMBL document CHEMBL1145769, “Novel openers of Ca2+-dependent large-conductance potassium channels: symmetrical pharmacophore and electrophysiological evaluation of bisphenols” (Bioorg Med Chem Lett, 2003):

How the values were obtained:
[1] = molecular target: Calcium-activated potassium channel subunit alpha-1 (Homo sapiens) (UniProt Q12791); assay: Maxi-K opening activity on cloned human (hSlo) large- conductance (BK) Ca(2+)-activated K+ channel expressed in Xenopus laevis oocytes at concentration of 20 uM; format: functional, cell-based; details: Oocyte
Sequence of Calcium-activated potassium channel subunit alpha-1 (Homo sapiens) (Q12791 whole entry): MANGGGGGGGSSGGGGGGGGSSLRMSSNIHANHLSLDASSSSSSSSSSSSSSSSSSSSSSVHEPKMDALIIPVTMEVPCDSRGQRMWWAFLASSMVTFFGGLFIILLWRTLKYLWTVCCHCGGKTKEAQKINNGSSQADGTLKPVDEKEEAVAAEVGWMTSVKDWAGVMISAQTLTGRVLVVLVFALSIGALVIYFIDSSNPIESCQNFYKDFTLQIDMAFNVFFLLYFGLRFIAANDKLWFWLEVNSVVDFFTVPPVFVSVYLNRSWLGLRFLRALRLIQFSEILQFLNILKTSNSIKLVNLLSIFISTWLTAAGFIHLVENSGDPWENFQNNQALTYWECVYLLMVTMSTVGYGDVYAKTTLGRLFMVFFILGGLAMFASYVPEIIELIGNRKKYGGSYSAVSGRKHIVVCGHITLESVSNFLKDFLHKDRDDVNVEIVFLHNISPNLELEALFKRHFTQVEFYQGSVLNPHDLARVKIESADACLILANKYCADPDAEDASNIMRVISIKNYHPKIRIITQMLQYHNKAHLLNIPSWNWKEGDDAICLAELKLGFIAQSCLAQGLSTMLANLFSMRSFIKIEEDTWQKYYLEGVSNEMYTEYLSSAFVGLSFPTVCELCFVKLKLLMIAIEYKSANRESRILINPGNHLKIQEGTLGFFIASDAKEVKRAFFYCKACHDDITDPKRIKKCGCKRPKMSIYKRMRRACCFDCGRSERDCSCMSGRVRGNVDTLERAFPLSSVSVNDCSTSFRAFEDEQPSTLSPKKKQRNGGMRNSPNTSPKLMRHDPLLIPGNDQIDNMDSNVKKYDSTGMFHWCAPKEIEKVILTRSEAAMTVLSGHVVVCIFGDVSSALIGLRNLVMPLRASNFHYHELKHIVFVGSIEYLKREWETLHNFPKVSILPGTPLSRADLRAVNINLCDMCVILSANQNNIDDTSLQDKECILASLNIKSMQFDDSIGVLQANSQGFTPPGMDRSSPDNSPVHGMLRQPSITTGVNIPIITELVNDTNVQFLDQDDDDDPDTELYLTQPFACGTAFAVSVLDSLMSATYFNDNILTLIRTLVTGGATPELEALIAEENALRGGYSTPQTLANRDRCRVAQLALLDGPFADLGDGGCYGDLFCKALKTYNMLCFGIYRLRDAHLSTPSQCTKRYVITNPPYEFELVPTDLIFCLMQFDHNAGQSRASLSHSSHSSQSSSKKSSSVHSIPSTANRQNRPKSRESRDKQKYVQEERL

[2] = pKa value was determined; format: physicochemical

Oc1ccc(F)cc1Sc1cc(F)ccc1O
Control current [1]: 98.8% | pKa [2]: 8.4

Oc1c(Cl)cccc1Cc1cccc(Cl)c1O
Control current [1]: 95.9% | pKa [2]: 8.2

Oc1ccc(Cl)cc1Cc1cc(Cl)ccc1O [DICHLOROPHEN]
Control current [1]: 74.3% | pKa [2]: 9.3

Oc1c(Cl)cc(Cl)cc1Sc1cc(Cl)cc(Cl)c1O [BITHIONOL]
Control current [1]: 199% | pKa [2]: 6.3

Oc1c(Cl)cc(Cl)cc1Cc1cc(Cl)cc(Cl)c1O
Control current [1]: 245% | pKa [2]: 7.7

CCCc1ccc(O)c(-c2cc(CCC)ccc2O)c1
Control current [1]: 95.9% | pKa [2]: 9.3

O=c1[nH]c2cc(C(F)(F)F)ccc2n1-c1cc(Cl)ccc1O
Control current [1]: 132% | pKa [2]: 9.6

Oc1c(Br)cc(Br)cc1-c1cc(Br)cc(Br)c1O [BROMOPHENE]
Control current [1]: 264% | pKa [2]: 6.7

Oc1c(Cl)cc(Cl)c(Cl)c1Cc1c(O)c(Cl)cc(Cl)c1Cl [HEXACHLOROPHENE]
Control current [1]: 237% | pKa [2]: 6.6

O=C(Nc1cccc(C(F)(F)F)c1)Nc1cc(Cl)ccc1O
Control current [1]: 124% | pKa [2]: 9.3

O=C(Nc1cc(Cl)cc(Cl)c1O)Nc1cc(Cl)cc(Cl)c1O
Control current [1]: 196% | pKa [2]: 7.4

Oc1ccc(Br)cc1-c1cc(Br)ccc1O
Control current [1]: 97% | pKa [2]: 8.6

O=C(Nc1cc(Cl)ccc1O)Nc1cc(Cl)ccc1O
Control current [1]: 150% | pKa [2]: 8.9

Oc1ccc(F)cc1Cc1cc(F)ccc1O
Control current [1]: 83.2% | pKa [2]: 9.7

CN(C)Cc1cc(Cl)cc(Cc2cc(Cl)cc(CN(C)C)c2O)c1O
Control current [1]: 94.7% | pKa [2]: 9.6
